The values below come from ChEMBL document CHEMBL4814005, “Pragmatic recruitment of memantine as the capping group for the design of HDAC inhibitors: A preliminary attempt to unravel the enigma of glioblastoma” (Eur J Med Chem, 2021).

SMILES strings stand for the structures. Active and inactive are the calls of the source. No cut-off for these calls is given here.

Test [1] deals with U-87 MG. As to the kind of experiment: Antitumor activity in TMZ-resistant human U-87 MG cells transplanted in BALB/C mouse assessed as increase in mouse survival at 10 mg/kg, ip measured for every 2 days measured for 40 days. The class given is functional, organism-based. As to conditions: U-87MG ATCC, time 40.0 day.
In test [2] the target is T1, Protein deacetylase HDAC6 (Homo sapiens, UniProt Q9UBN7).
T1 sequence (Q9UBN7 whole entry): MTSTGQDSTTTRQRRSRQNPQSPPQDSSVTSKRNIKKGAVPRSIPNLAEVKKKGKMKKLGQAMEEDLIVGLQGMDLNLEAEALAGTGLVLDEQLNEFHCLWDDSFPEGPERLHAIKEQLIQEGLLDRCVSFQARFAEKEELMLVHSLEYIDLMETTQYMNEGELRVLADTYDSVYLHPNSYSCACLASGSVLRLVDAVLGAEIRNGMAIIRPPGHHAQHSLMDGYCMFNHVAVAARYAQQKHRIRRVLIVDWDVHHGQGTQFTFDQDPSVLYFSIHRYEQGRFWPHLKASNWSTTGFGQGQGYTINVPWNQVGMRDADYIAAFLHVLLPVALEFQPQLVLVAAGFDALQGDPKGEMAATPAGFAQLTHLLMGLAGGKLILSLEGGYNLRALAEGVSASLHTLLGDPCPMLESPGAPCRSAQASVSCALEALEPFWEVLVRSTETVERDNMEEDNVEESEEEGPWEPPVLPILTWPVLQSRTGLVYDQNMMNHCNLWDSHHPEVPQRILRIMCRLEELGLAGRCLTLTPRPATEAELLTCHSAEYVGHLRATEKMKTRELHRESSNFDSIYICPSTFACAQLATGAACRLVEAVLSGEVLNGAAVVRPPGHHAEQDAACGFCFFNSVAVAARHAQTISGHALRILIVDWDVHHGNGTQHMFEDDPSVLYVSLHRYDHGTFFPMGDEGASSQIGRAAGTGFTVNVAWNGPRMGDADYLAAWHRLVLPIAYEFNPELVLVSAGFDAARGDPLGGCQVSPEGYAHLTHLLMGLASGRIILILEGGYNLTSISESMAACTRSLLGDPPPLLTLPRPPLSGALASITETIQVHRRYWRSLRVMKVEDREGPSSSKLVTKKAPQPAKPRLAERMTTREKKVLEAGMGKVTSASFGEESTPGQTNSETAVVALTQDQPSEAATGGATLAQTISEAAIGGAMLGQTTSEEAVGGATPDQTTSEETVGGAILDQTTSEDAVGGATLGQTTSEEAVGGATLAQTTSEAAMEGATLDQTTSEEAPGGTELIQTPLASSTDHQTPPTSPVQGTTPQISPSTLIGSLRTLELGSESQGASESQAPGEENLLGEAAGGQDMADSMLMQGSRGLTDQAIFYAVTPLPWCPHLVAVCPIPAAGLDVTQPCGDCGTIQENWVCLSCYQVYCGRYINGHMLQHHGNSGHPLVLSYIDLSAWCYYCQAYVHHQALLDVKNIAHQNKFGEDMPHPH
As to the kind of experiment: Inhibition of human recombinant HDAC6 expressed in baculovirus infected insect cells using [RHKK(Ac)] fluorogenic substrate.

As to `CC12CC3CC(C)(C1)CC(NCc1ccc(NC(=O)CCCCCCC(=O)NO)cc1)(C3)C2`, the outcome in test [1] was Active. In addition, the IC50 (commonly the concentration at which inhibition is half-maximal) in test [2] stood at 5.42 nM.
